From US8258119B2, “Anti-cancer drugs and uses relating thereto for metastatic malignant melanoma and other cancers” (Kasina Laila Innova Pharmaceuticals, priority 2008, dated 2012) come the findings set out here.

The test system of series [1] is normal human skin epithelial HS.531.sk cells. Nature of the series: LDH leakage assay on normal skin cells (tumor selectivity). Format: cell-based. The settings on record: 120 μg/ml. The protocol: From the data obtained from the MTT assay (Table J), compound 1, compound 6 and compound 13 have been selected and their cytotoxicity potential has been further validated in LDH leakage assay. […] Cytotoxicity potential of DTIC and its derivative compounds were evaluated by measuring the leaked lactate dehydrogenase (LDH) into the culture supernatant (LDH Cytotoxicity Detection Roche Applied Sciences, Germany). The leaked LDH is directly proportional to the cell damage done by the cytotoxic compounds. In brief, cells were treated with test compounds at various concentrations and incubated for 48 h. Vehicle control culture wells received only a maximum of 0.5% DMSO. The cell free culture supernatants were mixed with catalyst and dye solution and allowed to incubate for 15 min at room temperature. Finally, the reaction was stopped and the optical density was measured at 492 nm in a microplate reader (BioRad, USA). The results (mean OD±SD) obtained from quadruplicate wells were used in calculation to determine the cytotoxicity potential (50% of inhibitory concentration, IC50) of the test compounds. A plot of loss of cell viability as indicated by the leakage of LDH versus drug concentration is depicted in FIG. 1.
Next, to check whether the DTIC derivative compounds can selectively kill the melanoma cells without or minimally affecting the normal cells, we assessed the effect of the test compounds on normal human skin epithelial HS.531.sk cells. […] Whereas, 120 μg/ml of DTIC, compound 1, […] caused 5.8%, 4.2%, 2.4%, and 2.4% reduction in normal cell viability, respectively.
On the technique in general: Release of lactate dehydrogenase indicates damage to the cell membrane.

The test system of series [2] is DU145 human prostate tumor cells. The series is described as follows: MTT cell proliferation assay in DU145 cells. The settings on record: DU-145, read-out: 50% of inhibitory concentration, IC50 DU145. The class given is cell-based. The protocol:
(§1) MTT [3-(4,5-dimethylthiazol-2-yl)-2,5-diphenyltetrazolium bromide] incorporation based cell proliferation assay was performed using standard procedure with some modifications (38). The cytotoxic efficacy of the test compounds were evaluated in human malignant melanoma A2058 cells by MTT cell proliferation assay kit (Roche Applied Sciences, Germany). The assay was carried out according to the instruction provided by the vendor. Briefly, equal numbers of cells was plated in 96-well flat-bottomed plates in 100 μl of medium and were exposed to either DTIC or its derivative compounds at various concentrations up to 150 μg/ml for a period of three days. Vehicle control culture wells received only a maximum of 0.5% DMSO. Thereafter, 0.5 mg/ml of MTT reagent was added to each well and the microplate was incubated further for 4 h at 37° C. in presence of 5% CO2. Finally, the cells were solubilized by adding solubilizing solution and allowed to incubate at 37° C. overnight. After complete solubilization of the formazan crystals the absorbance was read at 540 nm in a microplate reader (BioRad, USA). The results (mean OD±SD) obtained from quadruplicate wells were used in calculation to determine the inhibition of cell proliferation (50% inhibitory concentration, IC50) of the test compounds.
(§2) Anti-tumor growth potential of Compound 1 and Compound 6 were evaluated in MCF-7 human breast tumor cells, MIA-PaCa2 human pancreas tumor cells and DU145 human prostate tumor cells by using MTT based cell proliferation studies as described earlier (example 19). The results (mean OD±SD) obtained from quadruplicate wells were used in calculation to determine the inhibition of cell proliferation (50% of inhibitory concentration, IC50) of the test compounds (Table 4).
A general note: Tetrazolium assays rely on reduction of a dye to a coloured formazan, in cell work by metabolically active cells.

Series [3] concerns A2058, human malignant melanoma cells. Nature of the series: MTT cell proliferation assay in A2058 cells. The class given is cell-based. The settings on record: A2058, 72 h, three days exposure. The protocol: as §1
Series [4] has as its system MCF-7 human breast tumor cells. Nature of the series: MTT cell proliferation assay in MCF-7 cells. The class given is cell-based. The conditions noted are these: MCF7, read-out: 50% of inhibitory concentration, IC50 MCF-7. The protocol: as §1, §2
The subject of series [5] is MIA-PaCa2 human pancreas tumor cells. Nature of the series: MTT cell proliferation assay in MIA-PaCa2 cells. Format: cell-based. The settings on record: MIA PaCa-2, read-out: 50% of inhibitory concentration, IC50 MIA-PaCa2. The protocol:
as §1, §2

Series [6] concerns PARP cleavage in A2058 human melanoma cells. Nature of the series: PARP cleavage Western immunoblot assay. The class given is cell-based. The settings on record: 100 μg/ml, versus DTIC at the same concentration. The source says: Proteolytic cleavage of PARP by caspases is regarded as a hallmark of apoptosis. Caspase-3 cleaves the 113-kDa PARP to generate 89- and 24-kDa polypeptides (39). Next, with an intention to evaluate the comparative apoptotic potential of DTIC and test products compound 1, compound 6 and compound 13, PARP cleavage assay has been performed on A2058 cells. PARP cleavage was estimated by using Western immunoblot assay as described earlier (40). FIG. 3 illustrates comparative efficacy of PARP cleavage by the test compounds at a fixed dose of 100 μg/ml. […] No. 3 treated A2058 cells is 56.6% more than in DTIC treated cells at the same concentration.
(In general: In western blotting, separated proteins are transferred to a membrane and probed.)

Each structure is given as a SMILES string. Converted amounts (≈) assume the structure as drawn.

As a reminder, the melting point is the temperature of the solid-liquid transition. `CN(C)/N=N/c1ccsc1C(=O)[O-].[K+]` registered a melting point of 274 to 280 °C.

Compound `CN(C)/N=N/c1ccsc1C(N)=O` [Compound 1, 3-[(dimethylamino)diazenyl]thiophene-2-carboxamide] returned a melting point of 168 to 170 °C. For the same compound, the “reduction in normal cell viability” value in series [1] is listed as 4.2%. In addition, in series [2], the IC50 was found to be 153 µg/mL (≈ 773 µM). Moreover, the IC50 in series [3] came out at 78.7 µg/mL (≈ 397 µM). In series [4], the IC50 is 130 µg/mL (≈ 657 µM). Further, the IC50 in series [5] was found to be 168 µg/mL (≈ 850 µM).

The compound `CN(C)/N=N/c1c(Br)csc1C(N)=O` [Compound 2, 3-[(dimethylamino)diazenyl]-4-bromothiophene-2-carboxamide] came in with a melting point of 194 to 196 °C. Also, in series [3], the IC50 stood at 113 µg/mL (≈ 409 µM).

As to `CN(C)/N=N/c1cc([N+](=O)[O-])sc1C(N)=O` [Compound 3, 3-[(dimethylamino)diazenyl]-5-nitrothiophene-2-carboxamide], the “reduction in normal cell viability” value in series [1] was 2.4%. For the same compound, in series [6], the “expression of cleaved subunit of PARP at 89 kDa, more than in DTIC treated cells” value was 56.6%.

Compound `COc1c(C(N)=O)sc(C(N)=O)c1/N=N/N(C)C` [Compound 4, 4-[(dimethylamino)diazenyl]-3-methoxythiophene-2,5-dicarboxamide] showed a melting point of 226 to 228 °C. Moreover, the “reduction in normal cell viability” value in series [1] amounted to 2.4%.

The compound `CN(C)/N=N/c1cc(-c2ccccc2)sc1C(N)=O` [Compound 5, 3-[(dimethylamino)diazenyl]-5-phenylthiophene-2-carboxamide] registered a melting point of 220 to 222 °C.

As to `CN(C)/N=N/c1cc([N+](=O)[O-])sc1C(=O)O` [Compound 7, 3-[(dimethylamino)diazenyl]-5-nitrothiophene-2-carboxylic acid], the melting point lay in the range of 184 to 186 °C.

Regarding `CN(C)/N=N/c1cc(-c2ccccc2)sc1C(=O)O` [Compound 8, 3-[(dimethylamino)diazenyl]-5-phenylthiophene-2-carboxylic acid], the melting point fell in the range of 162 to 166 °C.

In turn, `CN(C)/N=N/c1ccsc1C(=O)NCCO` [Compound 9, {3-[(dimethylamino)diazenyl] (2-thienyl)}-N-(2-hydroxyethyl)-carboxamide] had a melting point of 118 to 122 °C. The IC50 in series [3] amounted to 214 µg/mL (≈ 884 µM).

`CNC(=O)c1sccc1/N=N/N(C)C` [Compound 10, {3-[(dimethylamino)diazenyl](2-thienyl)}-N-methylcarboxamide] yielded a melting point of 98 to 102 °C. For the same compound, the IC50 in series [3] came to 179 µg/mL (≈ 842 µM).

`CN(C)/N=N/c1ccsc1C(=O)NCCN` [Compound 11, N-(2-aminoethyl){3-[(dimethylamino)diazenyl](2-thienyl)}-carboxamide]: the IC50 in series [3] came to 164 µg/mL (≈ 681 µM).

In turn, `CN(C)/N=N/c1csc(C(N)=O)c1` [Compound 12] had a melting point of 128 to 130 °C. For the same compound, in series [3], the IC50 is 165 µg/mL (≈ 832 µM).

Regarding `CN(C)/N=N/c1cscc1C(N)=O` [Compound 13, 4-[(dimethylamino)diazenyl]thiophene-3-carboxamide], the melting point is 168 to 172 °C. Moreover, the IC50 in series [3] was 48.8 µg/mL (≈ 246 µM).

As for `Cn1nnc2sc(N)cc2c1=O` [Compound 17, 6-amino-3-methylthiopheno[2,3-d]1,2,3-triazin-4-one], the melting point lay in the range of 190 to 194 °C. The same compound displayed an IC50 in series [3] of 147 µg/mL (≈ 805 µM).

On to `Cn1nnc2cc(-c3ccccc3)sc2c1=O` [Compound 18, 3-methyl-6-phenylthiopheno[3,2-d]1,2,3-triazin-4-one], for which the melting point lay within 220 to 222 °C.
